Among the data in ChEMBL document CHEMBL4334471, “Discovery of 1,8-disubstituted-[1,2,3]triazolo[4,5-c]quinoline derivatives as a new class of Hippo signaling pathway inhibitors” (Bioorg Med Chem Lett, 2019) are Activity values, retold here.

Test [1] relates to Tyrosine-protein kinase ABL1 (Homo sapiens), P00519 [M351T]. The test can be described thus: Inhibition of human ABL1 M351T mutant (27 to end residues) assessed as residual activity at 10 uM using EAIYAAPFAKKK as substrate incubated for 40 mins in presence of [gamma-33ATP] by scintillation counting based radiometry assay relative to control.
The target of test [2] is Activated CDC42 kinase 1 (Homo sapiens) (UniProt Q07912). The test can be described thus: Inhibition of human ACK1 (1 to 389 residues) assessed as residual activity at 10 uM using EFPIYDFLPAKKK as substrate incubated for 40 mins in presence of [gamma-33ATP] by scintillation counting based radiometry assay relative to control.
Chain of Activated CDC42 kinase 1 (Homo sapiens) (Q07912 whole entry, looked up, the tested form may be a part): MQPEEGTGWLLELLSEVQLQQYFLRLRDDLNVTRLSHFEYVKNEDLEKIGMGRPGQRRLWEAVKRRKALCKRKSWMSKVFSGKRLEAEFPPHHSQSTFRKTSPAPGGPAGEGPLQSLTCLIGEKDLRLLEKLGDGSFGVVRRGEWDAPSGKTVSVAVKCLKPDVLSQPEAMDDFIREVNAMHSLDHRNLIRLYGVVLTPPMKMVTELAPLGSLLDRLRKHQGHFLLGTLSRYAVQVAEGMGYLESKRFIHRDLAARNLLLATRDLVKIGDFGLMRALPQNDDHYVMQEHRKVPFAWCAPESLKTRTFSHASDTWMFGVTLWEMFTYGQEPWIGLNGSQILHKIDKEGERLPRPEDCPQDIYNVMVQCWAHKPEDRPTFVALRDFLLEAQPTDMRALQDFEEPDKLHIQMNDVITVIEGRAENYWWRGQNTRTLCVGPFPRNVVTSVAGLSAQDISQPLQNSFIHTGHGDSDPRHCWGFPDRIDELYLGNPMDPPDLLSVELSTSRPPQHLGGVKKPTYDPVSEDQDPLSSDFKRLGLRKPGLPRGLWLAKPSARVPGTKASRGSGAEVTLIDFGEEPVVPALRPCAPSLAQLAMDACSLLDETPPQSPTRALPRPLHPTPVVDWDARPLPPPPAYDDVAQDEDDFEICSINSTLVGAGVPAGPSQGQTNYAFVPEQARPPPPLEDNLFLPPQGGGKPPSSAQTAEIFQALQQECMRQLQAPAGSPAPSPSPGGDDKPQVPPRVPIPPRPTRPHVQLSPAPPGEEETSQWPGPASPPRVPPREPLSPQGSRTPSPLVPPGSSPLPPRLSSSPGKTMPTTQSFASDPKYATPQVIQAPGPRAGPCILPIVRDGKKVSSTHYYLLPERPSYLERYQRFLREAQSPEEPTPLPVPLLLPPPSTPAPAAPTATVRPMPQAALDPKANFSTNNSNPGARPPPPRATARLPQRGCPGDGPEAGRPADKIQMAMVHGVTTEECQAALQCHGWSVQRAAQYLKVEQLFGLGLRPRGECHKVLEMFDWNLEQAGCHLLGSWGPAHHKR
The target in test [3] is 5'-AMP-activated protein kinase catalytic subunit alpha-1 (Homo sapiens) (UniProt Q13131). Nature of the test: Inhibition of recombinant full length human AMPKalpha1 assessed as residual activity at 10 uM using AMARAASAAALAR as substrate incubated for 40 mins in presence of [gamma-33ATP] by scintillation counting based radiometry assay relative to control.
For test [4], the species on record is Homo sapiens. The test can be described thus: Inhibition of recombinant full length human Aurora A I31F mutant assessed as residual activity at 10 uM using LRRASLG as substrate incubated for 40 mins in presence of [gamma-33ATP] by scintillation counting based radiometry assay relative to control.
Test [5] has as its system Tyrosine-protein kinase BTK (Homo sapiens), Q06187 [R28H]. Nature of the test: Inhibition of recombinant full length human BTK R28H mutant assessed as residual activity at 10 uM using LSNLYHQGKFLQTFCGSPLYRRR substrate incubated for 40 mins in presence of [gamma-33ATP] by scintillation counting based radiometry assay relative to control.
The target in test [6] is Calcium/calmodulin-dependent protein kinase kinase 1 (Homo sapiens) (UniProt Q8N5S9). The test can be described thus: Inhibition of recombinant full length human CaMKK1 assessed as residual activity at 10 uM using […] incubated for 40 mins in presence of [gamma-33ATP] by scintillation counting based radiometry assay relative to control.
Test [7] has as its target Proto-oncogene tyrosine-protein kinase Src (Homo sapiens) (UniProt P12931). Nature of the test: Inhibition of recombinant human C-Src assessed as residual activity at 10 uM Cdc2 peptide as substrate incubated 40 mins in presence of [gamma-33ATP] by scintillation counting based radiometry assay relative to control.
For test [8], the target named is Macrophage colony-stimulating factor 1 receptor (Homo sapiens) (UniProt P07333). Nature of the test: Inhibition of recombinant human FMS (538 to end residues) assessed as residual activity at 10 uM using KKKSPGEYVNIEF as substrate at 40 mins in presence of [gamma-33ATP] by scintillation counting based radiometry assay relative to control.
For test [9], the target named is Eukaryotic translation initiation factor 2-alpha kinase 1 (Homo sapiens) (UniProt Q9BQI3). The test can be described thus: Inhibition of human HRI (140 to end residues) assessed as residual activity at 10 uM using RSRSRSRSRSRSR as substrate after 120 mins by [gamma-33ATP] radiometric assay relative to control.
Chain of Eukaryotic translation initiation factor 2-alpha kinase 1 (Homo sapiens) (Q9BQI3 whole entry): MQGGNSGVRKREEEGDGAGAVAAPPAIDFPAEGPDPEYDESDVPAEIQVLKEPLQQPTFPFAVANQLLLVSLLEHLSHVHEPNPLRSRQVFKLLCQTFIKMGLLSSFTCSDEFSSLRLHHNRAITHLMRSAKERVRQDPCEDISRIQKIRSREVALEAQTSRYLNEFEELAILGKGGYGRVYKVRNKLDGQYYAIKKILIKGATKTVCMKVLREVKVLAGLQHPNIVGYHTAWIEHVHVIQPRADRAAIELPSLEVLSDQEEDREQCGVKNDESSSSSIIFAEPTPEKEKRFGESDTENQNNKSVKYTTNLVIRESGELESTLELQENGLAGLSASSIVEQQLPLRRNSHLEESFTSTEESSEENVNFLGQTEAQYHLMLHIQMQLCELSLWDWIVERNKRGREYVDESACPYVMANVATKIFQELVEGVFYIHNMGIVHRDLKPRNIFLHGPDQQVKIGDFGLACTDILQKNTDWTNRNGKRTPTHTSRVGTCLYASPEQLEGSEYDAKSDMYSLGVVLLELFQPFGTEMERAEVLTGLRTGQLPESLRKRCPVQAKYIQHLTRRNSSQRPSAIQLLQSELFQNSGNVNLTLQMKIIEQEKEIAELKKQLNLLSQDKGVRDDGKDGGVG
Test [10] addresses Insulin-like growth factor 1 receptor (Homo sapiens) (UniProt P08069). Nature of the test: Inhibition of human IGF1R (959 to end residues) assessed as residual activity at 10 uM using KKKSPGEYVNIEFGF as substrate after 40 mins by [gamma-33ATP] radiometric assay relative to control.
Test [11] has as its target Leukocyte tyrosine kinase receptor (Homo sapiens) (UniProt P29376). Nature of the test: Inhibition of recombinant human LTK (450 to end residues) assessed as residual activity at 10 uM using GEEPLYWSFPAKK as substrate after 40 mins in presence of [gamma-33ATP] by scintillation counting based radiometry assay relative to control.
Test [12] deals with Mitogen-activated protein kinase kinase kinase kinase 3 (Homo sapiens) (UniProt Q8IVH8). Nature of the test: Inhibition of recombinant human MAP4K3 (1 to 291 residues) assessed as residual activity at 10 uM using RLGRDKYKTLRQI as substrate incubated for 40 mins in presence of [gamma-33ATP by scintillation counting based radiometry assay relative to control.
The species entered for test [13] is Homo sapiens. Nature of the test: Inhibition of recombinant human MER H628Q/R794A mutant (557 to 882 residues) assessed as residual activity at 10 uM using KKLNRTLSFAEPG as substrate incubated for 40 mins in presence of [gamma-33ATP by scintillation counting based radiometry assay relative to control.
Test [14] deals with Hepatocyte growth factor receptor (Homo sapiens), P08581 [Y1230H]. Nature of the test: Inhibition of recombinant human MET A1209G/V1290L/Y1248H mutant (974 to end residues) assessed as residual activity at 10 uM using KKKGQEEEYVFIE as substrate incubated for 40 mins in presence of [gamma-33ATP by scintillation counting based radiometry assay relative to control.
Test [15] concerns the target Dual specificity mitogen-activated protein kinase kinase 6 (Homo sapiens) (UniProt P52564). Nature of the test: Inhibition of recombinant human MKK6 assessed as residual activity at 10 uM by scintillation counting based radiometry assay relative to control.
Test [16] concerns the target Serine/threonine-protein kinase mTOR (Homo sapiens) (UniProt P42345). Nature of the test: Inhibition of recombinant full length human mTOR assessed as residual activity at 10 uM measured after 40 mins in presence of [gamma33P]ATP by scintillation counting based radiometry assay relative to control.
Test [17] deals with Serine/threonine-protein kinase Nek1 (Homo sapiens) (UniProt Q96PY6). The test can be described thus: Inhibition of recombinant human NEK1 (1 to 505 residues) assessed as residual activity at 10 uM using RLGRDKYKTLRQI as substrate measured after 40 mins in presence of [gamma33P]ATP by scintillation counting based radiometry assay relative to control.
Test [18] addresses Serine/threonine-protein kinase Nek7 (Homo sapiens) (UniProt Q8TDX7). Nature of the test: Inhibition of recombinant human NEK7 (2 to end residues) assessed as residual activity at 10 uM using FLAKSFGSPNRAYKK as substrate measured after 40 mins in presence of [gamma33P]ATP by scintillation counting based radiometry assay relative to control.
Test [19] has as its target Serine/threonine-protein kinase N2 (Homo sapiens) (UniProt Q16513). The test can be described thus: Inhibition of recombinant human PRK2 (501 to end residues) assessed as residual activity at 10 uM using AKRRRLSSLRA as substrate incubated for 40 mins in presence of [gamma33P]ATP by scintillation counting based radiometry assay relative to control.
The target of test [20] is Tyrosine-protein kinase receptor TYRO3 (Homo sapiens) (UniProt Q06418). Nature of the test: Inhibition of recombinant human RSE (451 to end residues) assessed as residual activity at 10 uM using KVEKIGEGTYGVVYK as substrate incubated for 40 mins in presence of [gamma33P]ATP by scintillation counting based radiometry assay relative to control.
Chain of Tyrosine-protein kinase receptor TYRO3 (Homo sapiens) (Q06418 whole entry): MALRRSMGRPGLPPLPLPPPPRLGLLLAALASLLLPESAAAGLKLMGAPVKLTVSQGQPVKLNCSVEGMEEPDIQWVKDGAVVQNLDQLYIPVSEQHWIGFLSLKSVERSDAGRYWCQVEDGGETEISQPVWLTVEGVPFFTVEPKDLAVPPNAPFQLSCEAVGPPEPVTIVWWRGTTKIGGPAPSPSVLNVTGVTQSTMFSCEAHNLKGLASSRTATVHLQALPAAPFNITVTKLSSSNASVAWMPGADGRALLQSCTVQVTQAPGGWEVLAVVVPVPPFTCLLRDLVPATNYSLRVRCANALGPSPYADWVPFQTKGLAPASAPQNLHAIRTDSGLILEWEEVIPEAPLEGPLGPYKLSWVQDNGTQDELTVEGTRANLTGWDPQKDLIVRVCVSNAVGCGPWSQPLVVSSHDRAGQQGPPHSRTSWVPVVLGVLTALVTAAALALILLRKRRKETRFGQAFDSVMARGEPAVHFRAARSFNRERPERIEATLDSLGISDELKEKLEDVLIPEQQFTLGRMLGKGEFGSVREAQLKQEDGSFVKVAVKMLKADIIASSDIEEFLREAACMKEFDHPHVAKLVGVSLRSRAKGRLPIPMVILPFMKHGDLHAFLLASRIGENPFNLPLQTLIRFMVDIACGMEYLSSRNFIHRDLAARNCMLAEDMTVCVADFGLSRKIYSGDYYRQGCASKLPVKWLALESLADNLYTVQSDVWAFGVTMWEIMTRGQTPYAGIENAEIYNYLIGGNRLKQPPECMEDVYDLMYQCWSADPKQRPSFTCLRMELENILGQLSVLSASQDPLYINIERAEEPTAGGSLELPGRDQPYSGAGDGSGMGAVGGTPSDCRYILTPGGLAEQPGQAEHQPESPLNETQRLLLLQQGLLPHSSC
Test [21] has as its target Mitogen-activated protein kinase 13 (Homo sapiens) (UniProt O15264). The test can be described thus: Inhibition of recombinant human full length SAPK4 assessed as residual activity at 10 uM using myelin basic protein as substrate incubated for 40 mins in presence of [gamma33P]ATP by scintillation counting based radiometry assay relative to control.
Test [22] concerns the target Serine/threonine-protein kinase 16 (Homo sapiens) (UniProt O75716). The test can be described thus: Inhibition of human STK16 assessed as residual activity at 10 uM in presence of [gamma33P]ATP by scintillation counting based radiometry assay relative to control.

Chain of Insulin-like growth factor 1 receptor (Homo sapiens) (P08069 31-736 limits assumed): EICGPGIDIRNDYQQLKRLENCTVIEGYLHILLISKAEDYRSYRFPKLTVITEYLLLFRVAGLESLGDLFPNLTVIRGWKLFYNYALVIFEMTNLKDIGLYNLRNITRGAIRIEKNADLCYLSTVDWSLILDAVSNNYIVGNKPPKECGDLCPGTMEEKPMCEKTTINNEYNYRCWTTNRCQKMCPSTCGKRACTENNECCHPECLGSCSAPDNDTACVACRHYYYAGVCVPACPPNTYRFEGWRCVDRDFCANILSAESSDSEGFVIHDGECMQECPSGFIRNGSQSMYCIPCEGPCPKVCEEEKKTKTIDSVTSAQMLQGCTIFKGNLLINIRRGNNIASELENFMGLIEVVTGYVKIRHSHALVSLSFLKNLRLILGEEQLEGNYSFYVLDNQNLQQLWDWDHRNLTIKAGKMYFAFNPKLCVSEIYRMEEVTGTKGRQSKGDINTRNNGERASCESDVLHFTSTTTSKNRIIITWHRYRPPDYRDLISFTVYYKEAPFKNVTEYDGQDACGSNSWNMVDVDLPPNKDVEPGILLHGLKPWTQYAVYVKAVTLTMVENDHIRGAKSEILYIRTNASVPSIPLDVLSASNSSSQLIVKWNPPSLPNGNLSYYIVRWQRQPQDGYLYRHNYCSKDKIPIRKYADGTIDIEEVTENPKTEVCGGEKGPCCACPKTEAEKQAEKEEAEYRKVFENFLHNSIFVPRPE
Chain of Insulin-like growth factor 1 receptor (Homo sapiens) (P08069 741-1367 limits assumed): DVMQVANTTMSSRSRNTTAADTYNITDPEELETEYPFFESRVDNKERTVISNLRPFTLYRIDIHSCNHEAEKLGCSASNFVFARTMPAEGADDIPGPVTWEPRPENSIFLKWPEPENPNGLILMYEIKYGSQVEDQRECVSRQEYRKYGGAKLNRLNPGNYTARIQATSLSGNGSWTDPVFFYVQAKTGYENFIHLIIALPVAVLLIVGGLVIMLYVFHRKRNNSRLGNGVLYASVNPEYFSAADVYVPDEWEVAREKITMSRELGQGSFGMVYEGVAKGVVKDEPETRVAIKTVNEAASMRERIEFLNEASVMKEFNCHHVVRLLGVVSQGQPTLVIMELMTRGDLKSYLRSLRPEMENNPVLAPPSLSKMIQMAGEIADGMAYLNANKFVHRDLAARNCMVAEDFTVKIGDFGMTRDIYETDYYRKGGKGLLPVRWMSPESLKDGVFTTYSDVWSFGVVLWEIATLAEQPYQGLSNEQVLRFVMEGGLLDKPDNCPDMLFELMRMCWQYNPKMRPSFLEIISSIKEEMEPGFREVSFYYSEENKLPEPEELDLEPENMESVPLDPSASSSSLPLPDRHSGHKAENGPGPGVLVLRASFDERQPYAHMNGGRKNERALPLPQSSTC
Chain of Leukocyte tyrosine kinase receptor (Homo sapiens) (P29376 whole entry, the tested form may be a part): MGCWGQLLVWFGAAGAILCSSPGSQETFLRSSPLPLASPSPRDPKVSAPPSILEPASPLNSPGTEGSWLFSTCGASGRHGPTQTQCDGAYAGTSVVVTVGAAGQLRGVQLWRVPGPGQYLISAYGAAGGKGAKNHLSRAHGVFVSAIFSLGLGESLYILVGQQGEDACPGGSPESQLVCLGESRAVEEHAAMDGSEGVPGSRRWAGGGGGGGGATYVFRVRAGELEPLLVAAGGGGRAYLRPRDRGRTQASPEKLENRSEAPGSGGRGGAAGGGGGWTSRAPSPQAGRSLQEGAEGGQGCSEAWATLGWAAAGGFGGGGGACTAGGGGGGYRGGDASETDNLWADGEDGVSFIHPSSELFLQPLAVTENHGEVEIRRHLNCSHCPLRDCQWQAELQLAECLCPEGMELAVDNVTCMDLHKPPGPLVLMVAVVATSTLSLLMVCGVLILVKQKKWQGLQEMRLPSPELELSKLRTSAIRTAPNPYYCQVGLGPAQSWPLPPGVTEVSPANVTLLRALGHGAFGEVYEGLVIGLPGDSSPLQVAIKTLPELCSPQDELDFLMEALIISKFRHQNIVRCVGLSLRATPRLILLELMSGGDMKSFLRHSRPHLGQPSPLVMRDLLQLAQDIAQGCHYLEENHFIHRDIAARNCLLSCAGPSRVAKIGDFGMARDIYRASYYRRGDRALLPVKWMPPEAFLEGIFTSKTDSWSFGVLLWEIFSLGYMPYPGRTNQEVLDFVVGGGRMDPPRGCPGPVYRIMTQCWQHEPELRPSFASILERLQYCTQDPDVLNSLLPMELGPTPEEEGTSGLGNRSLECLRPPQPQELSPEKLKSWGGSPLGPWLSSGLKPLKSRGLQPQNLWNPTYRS
Chain of Serine/threonine-protein kinase Nek7 (Homo sapiens) (Q8TDX7 whole entry, looked up): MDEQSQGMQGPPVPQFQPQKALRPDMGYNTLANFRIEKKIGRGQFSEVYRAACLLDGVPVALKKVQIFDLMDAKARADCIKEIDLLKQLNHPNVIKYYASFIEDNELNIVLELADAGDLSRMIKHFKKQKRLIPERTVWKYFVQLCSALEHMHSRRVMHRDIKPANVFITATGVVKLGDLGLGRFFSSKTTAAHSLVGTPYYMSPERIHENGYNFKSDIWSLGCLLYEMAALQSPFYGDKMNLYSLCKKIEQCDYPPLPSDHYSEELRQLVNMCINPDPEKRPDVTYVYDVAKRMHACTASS

As to `C[C@@H](c1ccccc1)n1nnc2cnc3ccc(-c4cnc5[nH]ccc5c4)cc3c21`, the Activity in test [1] was 3%; in test [2], 22%; in test [3] it was 45%; in the test listed under Homo sapiens [4], 69%; in [5], 116%; in [6], 67%. Moreover, the Activity in test [7] stood at 27%; in test [8], 21%; in [9], 91%; in [10] it was 50%; in test [11] it was 39%; in test [12], 73%. The Activity was 56% in the test filed under Homo sapiens [13]; 79% in test [14]; 109% in [15]; -7% in test [16]; 23% in [17]; 119% in test [18]. Moreover, the Activity was found to be 89% in test [19], 89% in [20], 97% in [21] and 59% in [22].
